{"source": "patent US20250101023A1", "about": "“HETEROARYL DERIVATIVE AND USES THEREOF” (IUCF-HYU (INDUSTRY-UNIVERSITY COOPERATION FOUNDATION …, priority 2022, published 2025)", "key": {"MRCKa/CDC42BPA": {"target": "MRCKa/CDC42BPA (Homo sapiens (Human), UniProt Q5VT25)", "assay": "Kinome-wide profiling", "assay_type": "biochemical", "conditions": "read-out: % Residual Activity (mean)"}, "P38a/MAPK14": {"target": "P38a/MAPK14 (Homo sapiens (Human), UniProt Q16539)", "sequence (Q16539 whole entry)": "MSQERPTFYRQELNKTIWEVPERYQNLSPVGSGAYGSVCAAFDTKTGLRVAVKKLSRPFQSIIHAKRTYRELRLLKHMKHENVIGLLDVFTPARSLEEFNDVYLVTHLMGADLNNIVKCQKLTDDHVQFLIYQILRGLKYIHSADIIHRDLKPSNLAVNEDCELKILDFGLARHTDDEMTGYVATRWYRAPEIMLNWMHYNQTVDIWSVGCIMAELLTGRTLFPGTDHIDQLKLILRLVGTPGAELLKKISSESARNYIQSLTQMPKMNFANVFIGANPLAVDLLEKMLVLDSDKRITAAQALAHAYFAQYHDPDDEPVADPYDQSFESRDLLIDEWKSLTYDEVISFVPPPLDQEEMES", "assay": "Kinome-wide profiling", "assay_type": "biochemical", "conditions": "read-out: % Residual Activity (mean)"}, "TESK1": {"target": "TESK1 (Homo sapiens (Human), UniProt Q15569)", "assay": "Kinome-wide profiling", "assay_type": "biochemical", "conditions": "read-out: % Residual Activity (mean)"}, "IRR/INSRR": {"target": "IRR/INSRR (Homo sapiens (Human), UniProt P14616)", "assay": "Kinome-wide profiling", "assay_type": "biochemical", "conditions": "read-out: % Residual Activity (mean)"}, "GRK1": {"target": "GRK1 (Homo sapiens (Human), UniProt Q15835)", "assay": "Kinome-wide profiling", "assay_type": "biochemical", "conditions": "read-out: % Residual Activity (mean)"}, "TRKA": {"target": "TRKA (Homo sapiens (Human), UniProt P04629)", "assay": "Kinome-wide profiling", "assay_type": "biochemical", "conditions": "read-out: % Residual Activity (mean)"}, "STK22D/TSSK1": {"target": "STK22D/TSSK1 (Homo sapiens (Human), UniProt Q9BXA7)", "sequence (Q9BXA7 whole entry)": "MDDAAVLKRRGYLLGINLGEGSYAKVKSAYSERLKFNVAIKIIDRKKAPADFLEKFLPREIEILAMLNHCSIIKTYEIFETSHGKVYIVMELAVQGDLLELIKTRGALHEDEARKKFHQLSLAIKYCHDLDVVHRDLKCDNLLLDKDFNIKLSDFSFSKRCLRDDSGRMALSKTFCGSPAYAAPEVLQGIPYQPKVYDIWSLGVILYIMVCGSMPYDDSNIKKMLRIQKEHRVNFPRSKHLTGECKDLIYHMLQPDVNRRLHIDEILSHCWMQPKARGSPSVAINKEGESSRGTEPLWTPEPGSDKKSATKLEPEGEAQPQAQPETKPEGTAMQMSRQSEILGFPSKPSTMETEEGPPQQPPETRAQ", "assay": "Kinome-wide profiling", "assay_type": "biochemical", "conditions": "read-out: % Residual Activity (mean)"}, "CDK6/cyclin D2": {"target": "CDK6/cyclin D2 (Homo sapiens (Human), UniProt Q00534)", "assay": "Kinome-wide profiling", "assay_type": "biochemical", "conditions": "read-out: % Residual Activity (mean)"}, "ULK1": {"target": "ULK1 (Homo sapiens (Human), UniProt O75385)", "assay": "Kinome-wide profiling", "assay_type": "biochemical", "conditions": "read-out: % Residual Activity (mean)"}, "ARAF": {"target": "ARAF (Homo sapiens (Human), UniProt P10398)", "assay": "Kinome-wide profiling", "assay_type": "biochemical", "conditions": "read-out: % Residual Activity (mean)"}, "PHKg2": {"target": "PHKg2 (Homo sapiens (Human), UniProt P15735)", "sequence (P15735 whole entry)": "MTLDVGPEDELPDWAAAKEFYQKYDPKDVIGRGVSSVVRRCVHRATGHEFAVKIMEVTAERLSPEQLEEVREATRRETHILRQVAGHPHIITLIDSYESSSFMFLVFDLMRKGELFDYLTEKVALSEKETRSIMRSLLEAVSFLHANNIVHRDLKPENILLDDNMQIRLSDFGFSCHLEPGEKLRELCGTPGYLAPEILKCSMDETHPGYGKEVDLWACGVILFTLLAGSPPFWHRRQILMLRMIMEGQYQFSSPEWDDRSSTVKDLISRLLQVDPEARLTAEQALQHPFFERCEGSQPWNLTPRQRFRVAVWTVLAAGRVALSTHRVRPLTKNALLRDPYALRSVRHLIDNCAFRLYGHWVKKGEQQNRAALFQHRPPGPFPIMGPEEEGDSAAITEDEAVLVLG", "assay": "Kinome-wide profiling", "assay_type": "biochemical", "conditions": "read-out: % Residual Activity (mean)"}, "CDK17/cyclin Y (PCTK2)": {"target": "CDK17/cyclin Y (PCTK2) (Homo sapiens (Human), UniProt Q00537)", "assay": "Kinome-wide profiling", "assay_type": "biochemical", "conditions": "read-out: % Residual Activity (mean)"}, "FES/FPS": {"target": "FES/FPS (Homo sapiens (Human), UniProt P07332)", "sequence (P07332 whole entry)": "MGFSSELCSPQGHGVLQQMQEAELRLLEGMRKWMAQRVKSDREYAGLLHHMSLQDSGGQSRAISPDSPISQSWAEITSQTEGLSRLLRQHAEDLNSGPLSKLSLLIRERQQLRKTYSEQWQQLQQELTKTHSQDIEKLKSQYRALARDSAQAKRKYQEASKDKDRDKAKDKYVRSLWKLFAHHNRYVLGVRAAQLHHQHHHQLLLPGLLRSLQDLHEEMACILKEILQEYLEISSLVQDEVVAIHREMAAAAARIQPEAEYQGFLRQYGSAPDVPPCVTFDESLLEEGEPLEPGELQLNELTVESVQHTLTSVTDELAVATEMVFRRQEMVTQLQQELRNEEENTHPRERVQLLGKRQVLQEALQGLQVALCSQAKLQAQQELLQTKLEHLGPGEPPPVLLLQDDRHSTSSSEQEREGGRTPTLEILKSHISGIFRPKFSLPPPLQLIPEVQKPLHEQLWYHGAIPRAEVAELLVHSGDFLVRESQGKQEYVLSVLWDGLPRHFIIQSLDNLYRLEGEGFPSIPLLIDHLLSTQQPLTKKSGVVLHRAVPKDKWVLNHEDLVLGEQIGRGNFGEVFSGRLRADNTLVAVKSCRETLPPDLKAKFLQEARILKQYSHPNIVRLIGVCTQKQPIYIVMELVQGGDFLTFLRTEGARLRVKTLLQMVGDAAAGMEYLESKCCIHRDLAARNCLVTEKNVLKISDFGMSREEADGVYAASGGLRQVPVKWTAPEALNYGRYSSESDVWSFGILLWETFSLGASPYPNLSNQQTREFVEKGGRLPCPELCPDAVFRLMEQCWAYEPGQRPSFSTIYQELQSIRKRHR", "assay": "Kinome-wide profiling", "assay_type": "biochemical", "conditions": "read-out: % Residual Activity (mean)"}, "JNK2": {"target": "JNK2 (Homo sapiens (Human), UniProt P45984)", "assay": "Kinome-wide profiling", "assay_type": "biochemical", "conditions": "read-out: % Residual Activity (mean)"}, "CDK3/cyclin E": {"target": "CDK3/cyclin E (Homo sapiens (Human), UniProt Q00526)", "sequence (Q00526 whole entry)": "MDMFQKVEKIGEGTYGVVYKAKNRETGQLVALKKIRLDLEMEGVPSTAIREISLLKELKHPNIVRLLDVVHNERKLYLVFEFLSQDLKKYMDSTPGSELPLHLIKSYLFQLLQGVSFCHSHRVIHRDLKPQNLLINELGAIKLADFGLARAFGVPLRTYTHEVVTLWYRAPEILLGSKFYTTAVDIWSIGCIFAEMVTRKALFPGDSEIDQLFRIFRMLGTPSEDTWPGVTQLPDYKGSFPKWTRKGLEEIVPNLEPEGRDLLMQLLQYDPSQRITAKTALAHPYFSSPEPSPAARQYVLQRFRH", "sequence (P24864 whole entry partner)": "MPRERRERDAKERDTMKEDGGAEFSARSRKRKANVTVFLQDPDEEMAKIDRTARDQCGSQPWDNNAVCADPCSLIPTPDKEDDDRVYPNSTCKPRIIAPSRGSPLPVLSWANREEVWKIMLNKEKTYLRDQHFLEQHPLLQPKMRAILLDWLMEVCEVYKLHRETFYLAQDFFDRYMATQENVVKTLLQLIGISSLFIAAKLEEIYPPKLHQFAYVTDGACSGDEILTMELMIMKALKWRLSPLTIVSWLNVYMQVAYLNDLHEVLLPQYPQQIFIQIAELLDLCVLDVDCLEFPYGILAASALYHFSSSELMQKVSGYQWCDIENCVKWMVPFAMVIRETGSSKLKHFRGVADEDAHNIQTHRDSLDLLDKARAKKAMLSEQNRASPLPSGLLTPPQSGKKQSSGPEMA", "assay": "Kinome-wide profiling", "assay_type": "biochemical", "conditions": "read-out: % Residual Activity (mean)"}, "CYP2D6": {"target": "CYP2D6 (Homo sapiens (Human), UniProt P10635)", "assay": "CYP inhibitory activity", "assay_type": "in vitro ADME", "conditions": "read-out: CYP % activity at 10 μM concentration 2D6", "method": "(§1) 5 derivatives were evaluated for in vitro metabolic stability in liver microsomes from three different species (human, dog, mouse) and for inhibitory activity against 5 representative cytochrome P450 enzymes (CYPs)(Table 3). In terms of liver microsomal stability, the 2′-pyridyl group is more suitable than the α-methyl-4′-pyridyl group as the terminal aromatic group at position 6, and the aminopyrimidyl group is better than the aminopyridyl group as a substituent at position 2."}, "CYP2C19": {"target": "CYP2C19 (Homo sapiens (Human), UniProt P33261)", "sequence (P33261 whole entry)": "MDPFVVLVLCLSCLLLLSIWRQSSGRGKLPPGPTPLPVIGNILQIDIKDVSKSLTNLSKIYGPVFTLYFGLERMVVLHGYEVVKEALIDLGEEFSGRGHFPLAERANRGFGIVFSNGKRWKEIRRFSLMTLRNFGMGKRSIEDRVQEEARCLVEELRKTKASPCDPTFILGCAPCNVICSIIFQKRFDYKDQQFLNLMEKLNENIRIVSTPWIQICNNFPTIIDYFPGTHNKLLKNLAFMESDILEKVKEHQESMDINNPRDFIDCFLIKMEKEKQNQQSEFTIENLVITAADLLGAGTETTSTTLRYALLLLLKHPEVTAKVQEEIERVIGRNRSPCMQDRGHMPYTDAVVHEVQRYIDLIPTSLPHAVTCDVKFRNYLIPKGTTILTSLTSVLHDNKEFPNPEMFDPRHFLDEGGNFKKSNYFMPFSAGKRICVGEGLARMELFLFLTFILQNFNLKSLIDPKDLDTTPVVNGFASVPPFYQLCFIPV", "assay": "CYP inhibitory activity", "assay_type": "in vitro ADME", "conditions": "read-out: CYP % activity at 10 μM concentration 2C19", "method": "as §1"}, "CYP2C9": {"target": "CYP2C9 (Homo sapiens (Human), UniProt P11712)", "assay": "CYP inhibitory activity", "assay_type": "in vitro ADME", "conditions": "read-out: CYP % activity at 10 μM concentration 2C9", "method": "as §1"}, "CYP3A4": {"target": "CYP3A4 (Homo sapiens (Human), UniProt P08684)", "assay": "CYP inhibitory activity", "assay_type": "in vitro ADME", "conditions": "read-out: CYP % activity at 10 μM concentration 3A4", "method": "as §1"}, "CDK1/cyclin E": {"target": "CDK1/cyclin E (Homo sapiens (Human), UniProt P06493)", "assay": "Kinome-wide profiling", "assay_type": "biochemical", "conditions": "read-out: % Residual Activity (mean)"}, "CDK9/cyclin T2": {"target": "CDK9/cyclin T2 (Homo sapiens (Human), UniProt P50750)", "sequence (P50750 whole entry)": "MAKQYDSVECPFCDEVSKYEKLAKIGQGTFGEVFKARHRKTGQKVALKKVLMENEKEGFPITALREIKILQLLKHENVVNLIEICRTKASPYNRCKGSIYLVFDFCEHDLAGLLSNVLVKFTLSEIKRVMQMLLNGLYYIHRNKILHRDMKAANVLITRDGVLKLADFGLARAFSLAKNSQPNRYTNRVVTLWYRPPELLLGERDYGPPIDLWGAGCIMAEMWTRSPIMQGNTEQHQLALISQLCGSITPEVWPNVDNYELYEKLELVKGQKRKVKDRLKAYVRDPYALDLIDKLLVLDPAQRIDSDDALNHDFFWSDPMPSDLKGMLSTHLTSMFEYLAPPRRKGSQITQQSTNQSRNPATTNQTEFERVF", "sequence (O60583 whole entry partner)": "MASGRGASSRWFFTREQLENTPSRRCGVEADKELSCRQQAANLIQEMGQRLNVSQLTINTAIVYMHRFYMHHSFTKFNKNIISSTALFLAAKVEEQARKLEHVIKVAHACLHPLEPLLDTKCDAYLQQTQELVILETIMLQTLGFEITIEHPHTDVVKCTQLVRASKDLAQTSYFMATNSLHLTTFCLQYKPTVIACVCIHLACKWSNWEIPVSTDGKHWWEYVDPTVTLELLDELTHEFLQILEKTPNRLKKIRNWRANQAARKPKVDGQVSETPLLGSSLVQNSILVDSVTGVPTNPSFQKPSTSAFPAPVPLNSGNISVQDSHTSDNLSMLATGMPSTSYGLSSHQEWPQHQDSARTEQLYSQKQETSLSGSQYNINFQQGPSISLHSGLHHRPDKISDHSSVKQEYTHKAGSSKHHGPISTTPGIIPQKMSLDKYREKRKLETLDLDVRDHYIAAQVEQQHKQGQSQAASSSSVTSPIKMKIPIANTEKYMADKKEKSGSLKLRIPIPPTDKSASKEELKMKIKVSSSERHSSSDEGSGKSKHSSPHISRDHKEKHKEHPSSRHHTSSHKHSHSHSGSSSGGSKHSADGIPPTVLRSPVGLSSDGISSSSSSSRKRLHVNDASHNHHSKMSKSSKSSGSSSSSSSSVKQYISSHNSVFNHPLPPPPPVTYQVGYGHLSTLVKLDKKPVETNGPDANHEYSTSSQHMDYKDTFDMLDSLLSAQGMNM", "assay": "Kinome-wide profiling", "assay_type": "biochemical", "conditions": "read-out: % Residual Activity (mean)"}, "c-MER": {"target": "c-MER (Homo sapiens (Human), UniProt Q12866)", "assay": "Kinome-wide profiling", "assay_type": "biochemical", "conditions": "read-out: % Residual Activity (mean)"}, "SRPK1": {"target": "SRPK1 (Homo sapiens (Human), UniProt Q96SB4)", "assay": "Kinome-wide profiling", "assay_type": "biochemical", "conditions": "read-out: % Residual Activity (mean)"}, "RIPK2": {"target": "RIPK2 (Homo sapiens (Human), UniProt O43353)", "assay": "Kinome-wide profiling", "assay_type": "biochemical", "conditions": "read-out: % Residual Activity (mean)"}, "c-Kit": {"target": "c-Kit (Homo sapiens (Human), UniProt P10721)", "assay": "Kinome-wide profiling", "assay_type": "biochemical", "conditions": "read-out: % Residual Activity (mean)"}, "PHKg1": {"target": "PHKg1 (Homo sapiens (Human), UniProt Q16816)", "assay": "Kinome-wide profiling", "assay_type": "biochemical", "conditions": "read-out: % Residual Activity (mean)"}, "EGFR": {"target": "EGFR (Homo sapiens (Human), UniProt P00533)", "assay": "Kinome-wide profiling", "assay_type": "biochemical", "conditions": "read-out: % Residual Activity (mean)"}, "NEK9": {"target": "NEK9 (Homo sapiens (Human), UniProt Q8TD19)", "assay": "Kinome-wide profiling", "assay_type": "biochemical", "conditions": "read-out: % Residual Activity (mean)"}, "FGFR3": {"target": "FGFR3 (Homo sapiens (Human), UniProt P22607)", "assay": "Kinome-wide profiling", "assay_type": "biochemical", "conditions": "read-out: % Residual Activity (mean)"}, "PBK/TOPK": {"target": "PBK/TOPK (Homo sapiens (Human), UniProt Q96KB5)", "assay": "Kinome-wide profiling", "assay_type": "biochemical", "conditions": "read-out: % Residual Activity (mean)"}, "CK1epsilon": {"target": "CK1epsilon (Homo sapiens (Human), UniProt P49674)", "assay": "Kinome-wide profiling", "assay_type": "biochemical", "conditions": "read-out: % Residual Activity (mean)"}, "LIMK1": {"target": "LIMK1 (Homo sapiens (Human), UniProt P53667)", "assay": "Kinome-wide profiling", "assay_type": "biochemical", "conditions": "read-out: % Residual Activity (mean)"}, "NEK5": {"target": "NEK5 (Homo sapiens (Human), UniProt Q6P3R8)", "sequence (Q6P3R8 whole entry)": "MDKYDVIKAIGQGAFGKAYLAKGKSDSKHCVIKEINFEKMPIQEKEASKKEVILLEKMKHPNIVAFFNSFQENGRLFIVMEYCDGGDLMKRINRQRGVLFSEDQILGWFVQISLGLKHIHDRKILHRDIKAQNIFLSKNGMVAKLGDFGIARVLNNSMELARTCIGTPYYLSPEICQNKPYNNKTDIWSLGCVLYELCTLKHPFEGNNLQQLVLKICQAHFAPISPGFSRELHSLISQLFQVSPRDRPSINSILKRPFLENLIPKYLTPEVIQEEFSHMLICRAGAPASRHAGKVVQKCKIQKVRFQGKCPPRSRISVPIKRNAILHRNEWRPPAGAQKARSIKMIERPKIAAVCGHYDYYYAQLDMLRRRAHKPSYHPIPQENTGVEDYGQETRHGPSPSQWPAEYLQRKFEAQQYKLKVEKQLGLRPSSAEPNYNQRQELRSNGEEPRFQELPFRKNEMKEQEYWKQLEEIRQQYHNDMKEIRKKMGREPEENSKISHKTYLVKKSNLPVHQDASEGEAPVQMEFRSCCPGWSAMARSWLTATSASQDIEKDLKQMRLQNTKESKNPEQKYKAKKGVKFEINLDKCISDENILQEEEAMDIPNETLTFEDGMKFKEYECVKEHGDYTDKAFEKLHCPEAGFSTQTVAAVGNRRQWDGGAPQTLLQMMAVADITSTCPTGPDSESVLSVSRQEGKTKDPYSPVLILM", "assay": "Kinome-wide profiling", "assay_type": "biochemical", "conditions": "read-out: % Residual Activity (mean)"}, "BRAF": {"target": "BRAF (Homo sapiens (Human), UniProt P15056)", "assay": "Kinome-wide profiling", "assay_type": "biochemical", "conditions": "read-out: % Residual Activity (mean)"}, "ACK1": {"target": "ACK1 (Homo sapiens (Human), UniProt Q07912)", "assay": "Kinome-wide profiling", "assay_type": "biochemical", "conditions": "read-out: % Residual Activity (mean)"}}, "data": [{"compound": "CCn1cnc2c(NCc3ccc(-c4ccccn4)nc3)nc(-c3ccc(N)nc3)nc21", "note": "[Example 53, N-([2,2′-bipyridin]-5-ylmethyl)-2-(6-aminopyridin-3-yl)-9-ethyl-9H-purin-6-amine]", "values": [{"measurement": "remaining activity at 10 µM", "setting": "MRCKa/CDC42BPA", "value": 96.6, "unit": "%"}, {"measurement": "remaining activity at 10 µM", "setting": "P38a/MAPK14", "value": 84.2, "unit": "%"}, {"measurement": "remaining activity at 10 µM", "setting": "TESK1", "value": 93.1, "unit": "%"}, {"measurement": "remaining activity at 10 µM", "setting": "IRR/INSRR", "value": 31.1, "unit": "%"}, {"measurement": "remaining activity at 10 µM", "setting": "GRK1", "value": 76.3, "unit": "%"}, {"measurement": "remaining activity at 10 µM", "setting": "TRKA", "value": 28.7, "unit": "%"}, {"measurement": "remaining activity at 10 µM", "setting": "STK22D/TSSK1", "value": 38, "unit": "%"}, {"measurement": "remaining activity at 10 µM", "setting": "CDK6/cyclin D2", "value": 51.5, "unit": "%"}, {"measurement": "remaining activity at 10 µM", "setting": "ULK1", "value": 70.3, "unit": "%"}, {"measurement": "remaining activity at 10 µM", "setting": "ARAF", "value": 79.5, "unit": "%"}, {"measurement": "remaining activity at 10 µM", "setting": "PHKg2", "value": 56.9, "unit": "%"}, {"measurement": "remaining activity at 10 µM", "setting": "CDK17/cyclin Y (PCTK2)", "value": 7.25, "unit": "%"}, {"measurement": "remaining activity at 10 µM", "setting": "FES/FPS", "value": 6.37, "unit": "%"}, {"measurement": "remaining activity at 10 µM", "setting": "JNK2", "value": 61.7, "unit": "%"}, {"measurement": "remaining activity at 10 µM", "setting": "CDK3/cyclin E", "value": 0.99, "unit": "%"}, {"measurement": "activity at 10 µM", "setting": "CYP2D6", "value": 81, "unit": "%"}, {"measurement": "activity at 10 µM", "setting": "CYP2C19", "value": 68.1, "unit": "%"}, {"measurement": "activity at 10 µM", "setting": "CYP2C9", "value": 57.9, "unit": "%"}, {"measurement": "activity at 10 µM", "setting": "CYP3A4", "value": 43, "unit": "%"}, {"measurement": "remaining activity at 10 µM", "setting": "CDK1/cyclin E", "value": 7.49, "unit": "%"}, {"measurement": "remaining activity at 10 µM", "setting": "CDK9/cyclin T2", "value": 1.95, "unit": "%"}, {"measurement": "remaining activity at 10 µM", "setting": "c-MER", "value": 71, "unit": "%"}, {"measurement": "remaining activity at 10 µM", "setting": "SRPK1", "value": 54.3, "unit": "%"}, {"measurement": "remaining activity at 10 µM", "setting": "RIPK2", "value": 66.1, "unit": "%"}, {"measurement": "remaining activity at 10 µM", "setting": "c-Kit", "value": 14.2, "unit": "%"}, {"measurement": "remaining activity at 10 µM", "setting": "PHKg1", "value": 16.5, "unit": "%"}, {"measurement": "remaining activity at 10 µM", "setting": "EGFR", "value": 83.7, "unit": "%"}, {"measurement": "remaining activity at 10 µM", "setting": "NEK9", "value": 90, "unit": "%"}, {"measurement": "remaining activity at 10 µM", "setting": "FGFR3", "value": 30.6, "unit": "%"}, {"measurement": "remaining activity at 10 µM", "setting": "PBK/TOPK", "value": 93.5, "unit": "%"}, {"measurement": "remaining activity at 10 µM", "setting": "CK1epsilon", "value": 29.8, "unit": "%"}, {"measurement": "remaining activity at 10 µM", "setting": "LIMK1", "value": 59.9, "unit": "%"}, {"measurement": "remaining activity at 10 µM", "setting": "NEK5", "value": 83.8, "unit": "%"}, {"measurement": "remaining activity at 10 µM", "setting": "BRAF", "value": 60.8, "unit": "%"}, {"measurement": "remaining activity at 10 µM", "setting": "ACK1", "value": 13.7, "unit": "%"}]}]}
